The nature of data set [1]: pH determination of PLA ILs dissolved in water. The format is physicochemical. As to the method: (§1) The equilibrium solubility of D-PLA, L-PLA, and their ILs was determined using a previously reported method.^30 An excess amount of D-PLA, L-PLA, or their ILs was added in an Eppendorf tube along with 1 mL of water. The sample was placed on an orbital shaker and was equilibrated at room temperature for 24 h with a speed of 200 rpm. After 24 h, the samples were centrifuged, the supernatant was filtered using a 0.22 μm syringe filter and further diluted using methanol as necessary. The D-PLA or L-PLA content in the supernatant was analyzed using the HPLC method to calculate the equilibrium solubility. Further, the pH values of D-PLA, L-PLA, and their ILs dissolved in water were determined using a VWR 1100L pH meter.

Data set [2] is described as follows: Thermogravimetric analysis (TGA), thermal stability. The format is physicochemical. The note with it: 30-350° C. at 10° C./min, nitrogen. The method, then:
TA Instruments Discovery TGA 5500 (TA instruments, New Castle, DE, USA) was used to analyse pure PLA, carnitine, and various PLA ILs. The samples were accurately weighed (2-5 mg) in platinum pans and placed onto the autosampler. The samples were heated from 30° C. to 350° C. at 10° C./min; nitrogen was purged at a rate of 25 mL/min. TRIOS software (TA instruments, New Castle, DE, USA) was used to analyse the data.

The nature of data set [3]: Differential scanning calorimetry (DSC), glass transition temperature. The format is physicochemical. The conditions noted are these: cool/heat 5° C./min, 30 to −80° C. The method, then:
The TA Instruments DSC 2500 RCS40 cooling unit (TA instruments, New Castle, DE, USA), calibrated with indium, was used to record thermograms of pure compounds of D-PLA, L-PLA, carnitine, and their corresponding ILs. The samples were weighed (6-10 mg) and hermetically sealed in Tzero aluminium pans, along with an empty reference Tzero pan. The atmosphere was inert because of nitrogen purge at a rate of 25 mL/min. The samples were heated from 30° C. to the temperature equivalent to a 5% weight loss point with a 5° C./min ramp for each sample to observe thermal transitions. The glass transition temperature (Tg) for each sample was recorded in the cool/heat run at 5° C./min ramp from 30° C. to −80° C., and from −80° C. to 30° C. TRIOS software (TA instruments, New Castle, DE, USA) was used to analyse the data.

The test system of data set [4] is human cervical epithelial cells (A2EN). In words: Crystal violet staining for cervical cell morphology. The format is cell-based. The conditions noted are these: 24 h; even at 100 mM. As to the method:
(§2) Human endocervical epithelial cell line (A2EN), generated from human endocervical explant tissue^31, was cultured as monolayers in keratinocyte serum-free medium (KFSM) supplemented with recombinant epidermal growth factor (5 ng/ml), bovine pituitary extract (50 μg/ml; Gibco), CaCl2 ([…]; Sigma-Aldrich), and primocin (100 μg/ml; InvivoGen, San Diego, CA), herein referred to as A2 medium, at 37° C. under 5% carbon dioxide (CO2) atmosphere.
(§3) Prior to cytotoxicity testing, PLA ILs were diluted to 1 M concentrations with distilled water and filtered using a sterile 0.2 μm syringe filter. Solutions with pH ranging from 4 to 7.5 were prepared by adjusting the pH of A2 media with hydrochloric acid (HCl), following filtration using a sterile 0.2 μm syringe filter.
Cervical cell morphology following PLA IL treatment was visualised using 2.3% crystal violet stain with 0.1% ammonium oxalate and 20% ethanol (Sigma-Aldrich). Cervical cell monolayers were seeded into a tissue-treated 24-well microtiter plate (Falcon) at a density of 1.5×10^5 cells/well and incubated for 24 h at 37° C. under 5% CO2. Two-fold serial dilutions of each PLA IL were prepared and aliquoted into respective wells to obtain final concentrations of 3.125 to 100 mM. Deionised water and 1% Conceptrol (v/v), containing the detergent, nonoxynol-9, were used as negative and positive controls, respectively. […]

Data set [5] shares this test system. In words: MTT assay for cervical cell proliferation/viability. The format is cell-based. The note with it: 24 h; even at 50 mM. The method, then:
as §2, §3
Cervical cell monolayers were seeded into a tissue-treated 96-well microtiter plate (Corning Costar) at a density of 2.0×10^4 cells/well and incubated for 24 h at 37° C. under 5% CO2. Cells were treated with each PLA IL at concentrations ranging to 3.125 to 100 mM and incubated for 24 h (37° C. under 5% CO2). […] Absorbance was measured at 570 nm (reference 650 nm) and recorded using the Safire II Multi-Mode Microplate reader (Tecan, Mannedorf, Switzerland). Percentage cell viability was calculated as [sample absorbance−media background absorbance]/[control absorbance−media background absorbance]×100. […]

A short description of data set [6]: Equilibrium (saturation) solubility in water. It counts as physicochemical. The note with it: room temperature, HPLC; for saturation/equilibrium solubility in water: 24 h, 1440 min. As to the method:
To evaluate the purity of the synthesized D- or L-PLA ILs and for the determination of their water solubility, a reverse phase-HPLC method was developed. The HPLC apparatus consisted of a Shimadzu LC2050C-3D system with a PDA detector. Samples were run through a C18 precolumn and a Gemini C18 reverse-phase column [150×4.5 mm (ID.)] with 5 μm particle size packing (Phenomenex, Torrance, CA). The mobile phase contained acetonitrile and 20 mM phosphoric acid solution in water (25:75). The flow rate of the mobile phase was at 0.8 mL/min, the column oven was set at 45° C., the injection volume was 10 μL, and the detection was carried out at 210 nm. The retention time for PLA was 5.5 min. For the standard curve, D- or L-PLA stock solutions (0.1 mg/mL) were prepared in methanol. The stock solutions were diluted to obtain solutions of various concentrations. The standard curve was obtained by injecting 5-25 μg/mL of PLA. All the experiments were performed in triplicate.
as §1

Data set [7] can be described thus: Kinetic solubility in water. The format is physicochemical. The conditions noted are these: vs equilibrium solubility.
The test system of data set [8] is bacteria and fungi. The note with it: D-PLA vs L-PLA; cited from earlier work.
For data set [9], the system named is peroxisome proliferator-activated receptor γ (PPAR-γ). The conditions noted are these: mouse model, early-life antibiotic exposure and high-fat diet; cited from earlier work.
Data set [10] deals with Salmonella enterica serovar Typhimurium-induced colitis. The conditions noted are these: mice; cited from earlier work.
Data set [11] has as its system urogenital pathogens (Streptococcus agalactiae, Klebsiella pneumoniae, Candida albicans). The note with it: in vitro; gram-positive, gram-negative and fungal urogenital pathogens; cited from earlier work.
Data set [12] deals with cervicovaginal epithelial barrier. The note with it: cited from earlier work.

In brackets after ≈: the same amount, converted by molar mass.

With `C[N+](C)(C)CCO.O=C([O-])[C@H](O)Cc1ccccc1` [Chol:D-PLA (1:1)], the pH in data set [1] is recorded as ~ 9. Further, the “T5% (onset temperature at 5% mass loss)” value in [2] turned out to be 94.3 °C. Further, the “glass transition temperature (Tg)” value in [3] was −63.53 °C. Besides, the morphological changes result in data set [4] is listed as “no morphological changes were observed”. Besides, in [5], the “cell viability” value is reported as “did not significantly reduce cervical epithelial cell viability”.

For the compound `O=C(O)[C@H](O)Cc1ccccc1` [D-PLA], in data set [6], the “saturation/equilibrium solubility in water” value is reported as over 25 mg/mL and the thermodynamic solubility at 24 h was 33.1 ± 0.44 mg/mL (≈ 199 mM). In data set [7], the “kinetic solubility in water” value was “considerably lower”. In addition, the “antimicrobial activity of enantiomer” value in data set [8] is “greater antimicrobial activity than L-PLA”.

For the compound `O=C(O)[C@@H](O)Cc1ccccc1` [L-PLA], in [6], the “saturation/equilibrium solubility in water” value is over 25 mg/mL and the solubility (thermodynamic) at 24 h came out at 25.7 ± 1.02 mg/mL (≈ 154 mM). Moreover, the “T5% (onset temperature at 5% mass loss)” value in [2] stood at 156.07 °C. The “kinetic solubility in water” value in data set [7] was “considerably lower”.

With `O=C(O)C(O)Cc1ccccc1` (centres unmarked) [PLA, 2-hydroxy-3-phenylpropanoic acid], the “kinetic solubility in water” value in data set [7] is on record as “low kinetic solubility in water”. Besides, the “PPAR-γ activity” value in data set [9] is listed as “upregulates intestinal peroxisome proliferator-activated receptor γ (PPAR-γ) activity”. In data set [10], the “protection against colitis” value was “protect against Salmonella enterica serovar Typhimurium-induced colitis in mice”. Besides, the “antimicrobial properties” value in [11] is reported as “exhibits antimicrobial properties”.

For `C[N+](C)(C)C[C@H](O)CC(=O)[O-]` [carnitine], the “T5% (onset temperature at 5% mass loss)” value in data set [2] stood at 189.9 °C.

With `CC(O)C(=O)O` (centres unmarked) [lactic acid], in data set [12], the “anti-inflammatory activity” value is given as “anti-inflammatory activity”. Further, in data set [12] (physiological concentrations, tight junction protein expression), the “epithelial barrier integrity” value is “enhance cervicovaginal epithelial barrier integrity”.

Values taken from US20260315416A1, “PHENYLLACTIC ACID COMPOSITIONS AND RELATED METHODS OF USE” (priority 2023, published 2026).
